The text below walks through data of patent US9868746B2, “Substituted 5-aminothieno[2,3-C]pyridazine-6-carboxamide analogs as positive allosteric modulators of the muscarinic acetylcholine receptor M4” (Vanderbilt University, priority 2012, dated 2018).

Like-named read-outs stand apart in the source and are kept apart here.

The test deals with T1, mAChR M4 (Homo sapiens, UniProt P08173).
T1 construct: expressed in transfected cells; host or cells: CHO-K1 cells stably transfected with M4 cDNA and chimeric G-protein Gqi5
T1 sequence (P08173 1-479): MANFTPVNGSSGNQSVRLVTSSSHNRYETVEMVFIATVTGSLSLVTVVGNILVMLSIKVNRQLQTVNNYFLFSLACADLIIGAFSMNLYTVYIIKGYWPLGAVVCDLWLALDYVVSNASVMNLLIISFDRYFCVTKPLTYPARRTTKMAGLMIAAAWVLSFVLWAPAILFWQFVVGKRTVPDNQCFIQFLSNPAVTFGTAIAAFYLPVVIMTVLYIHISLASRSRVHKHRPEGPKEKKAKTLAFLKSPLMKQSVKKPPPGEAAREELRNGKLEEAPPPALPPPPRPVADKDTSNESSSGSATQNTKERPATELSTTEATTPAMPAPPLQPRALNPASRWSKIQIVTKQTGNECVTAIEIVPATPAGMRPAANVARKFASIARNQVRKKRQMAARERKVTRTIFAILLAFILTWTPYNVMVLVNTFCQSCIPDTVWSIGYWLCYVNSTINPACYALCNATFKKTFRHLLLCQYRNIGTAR
Nature of the test: mAChR M4 cell-based functional assay (calcium mobilization, potentiation of EC20 acetylcholine response). To be noted: for Emax at 30 µM: % ACh maximum at 30 μM.

Setting [1] is: mAChR M4 cell-based functional assay, >10,000 estimated for low potency compounds without plateau, read-out: EC50.

With `Cc1nnc2sc(C(=O)NC3CCN(c4ccccc4OC(F)(F)F)C3)c(N)c2c1C` (stereo not drawn) [Example B282], the Emax (commonly the greatest response seen or fitted, relative to the assay's reference) at 30 µM turned out to be 80%. Moreover, the EC50 (commonly the concentration needed to bring the measured effect to its halfway point) under setting [1] was 220 nM.
The matching figures for `Cc1nnc2sc(C(=O)NC3CCN(c4ccc(C(F)(F)F)cc4)C3)c(N)c2c1C` (stereo not drawn) [Example B283]: 76% and 180 nM.
The matching figures for `Cc1nnc2sc(C(=O)NC3CCN(c4ccccc4C(F)(F)F)C3)c(N)c2c1C` (stereo not drawn) [Example B284]: 71% and 150 nM.
The matching figures for `CCOC(=O)N1CC2CN(C(=O)c3sc4nnc(C)c(C)c4c3N)CC2C1` (stereo not drawn) [Example B285]: 73% and 2500 nM.
Consider `Cc1nnc2sc(C(=O)N3CC4CN(C5CCCC5)CC4C3)c(N)c2c1C` (stereo not drawn) [Example B286], for which the Emax at 30 µM came to 19%. Further, the EC50 under setting [1] was 4800 nM.
The matching figures for `Cc1nnc2sc(C(=O)N3CC4CN(c5ccccn5)CC4C3)c(N)c2c1C` (stereo not drawn) [Example B287]: 58% and 250 nM.
The matching figures for `COc1ccc(CNC(=O)c2sc3nnc(C)c(C)c3c2N)cn1` [Example B288]: 71% and 150 nM.
The matching figures for `COc1cc(CNC(=O)c2sc3nnc(C)c(C)c3c2N)ccn1` [Example B289]: 69% and 230 nM.
As to `COc1ccc(C2(OC)CN(C(=O)c3sc4nnc(C)c(C)c4c3N)C2)cc1` [Example B290], the Emax at 30 µM was determined as 45%. Under setting [1], the EC50 is 440 nM.
In the same order, the values of `Cc1nnc2sc(C(=O)N3CC(F)(CCC4OCCCO4)C3)c(N)c2c1C` [Example B291] are 46% and greater than 10000 nM.
In the same order, the values of `COC1(C)CN(C(=O)c2sc3nnc(C)c(C)c3c2N)C1` [Example B292] are 62% and greater than 10000 nM.
The matching figures for `Cc1nnc2sc(C(=O)N3CC(F)(c4cccc(F)c4)C3)c(N)c2c1C` [Example B293]: 46% and 150 nM.
As for `COc1ccccc1C1(OC)CN(C(=O)c2sc3nnc(C)c(C)c3c2N)C1` [Example B294], the Emax at 30 µM was 43%. Besides, under setting [1], the EC50 is 1100 nM.
The matching figures for `Cc1nnc2sc(C(=O)N3CC(F)(c4ccc(Cl)cc4)C3)c(N)c2c1C` [Example B295]: 54% and greater than 10000 nM.
The matching figures for `Cc1nnc2sc(C(=O)N3CC(F)(C4CCCCC4)C3)c(N)c2c1C` [Example B296]: 67% and 280 nM.
On to `Cc1nnc2sc(C(=O)NCc3ccc(S(F)(F)(F)(F)F)cc3)c(N)c2c1C` [Example B297], for which the Emax at 30 µM was determined as 76%. Under “EC50 (nM)”, the EC50 worked out at 30 nM.
In the case of `COC1(CCC2OCCCO2)CN(C(=O)c2sc3nnc(C)c(C)c3c2N)C1` [Example B298], the Emax at 30 µM came to 43%. Also, the EC50 under setting [1] was 4300 nM.
On to `COC1(c2cccc(F)c2)CN(C(=O)c2sc3nnc(C)c(C)c3c2N)C1` [Example B299], for which the Emax at 30 µM was found to be 35%. In addition, the EC50 under setting [1] was 350 nM.
The matching figures for `COc1cccc(C2(F)CN(C(=O)c3sc4nnc(C)c(C)c4c3N)C2)c1` [Example B300]: 52% and 330 nM.
The matching figures for `COc1ccc(C2(NC(=O)c3sc4nnc(C)c(C)c4c3N)CC2)cc1` [Example B301]: 48% and 6400 nM.
As for `Cc1nnc2sc(C(=O)N3CC(C)(F)C3)c(N)c2c1C` [Example B302], the Emax at 30 µM was 73%. In addition, the EC50 under setting [1] was 860 nM.
In the same order, the values of `Cc1nnc2sc(C(=O)N3CC(F)(c4ccccn4)C3)c(N)c2c1C` [Example B303] are 57% and 500 nM.
In the same order, the values of `COC1(C2CCCCC2)CN(C(=O)c2sc3nnc(C)c(C)c3c2N)C1` [Example B304] are 43% and 1100 nM.
In the same order, the values of `CCCCC1(OC)CN(C(=O)c2sc3nnc(C)c(C)c3c2N)C1` [Example B305] are 68% and 870 nM.
`Cc1nnc2sc(C(=O)N3CC(N)(c4ccccc4)C3)c(N)c2c1C` [Example B306]: the Emax at 30 µM stood at 51%. The EC50 under setting [1] was 1100 nM.
In the same order, the values of `CCCCC1(F)CN(C(=O)c2sc3nnc(C)c(C)c3c2N)C1` [Example B307] are 55% and 180 nM.
In the same order, the values of `Cc1nnc2sc(C(=O)N3CC(F)(c4cccnc4)C3)c(N)c2c1C` [Example B308] are 42% and 850 nM.
In the same order, the values of `Cc1nnc2sc(C(=O)N3CC(NC(=O)Oc4ccccc4)(c4ccccc4)C3)c(N)c2c1C` [Example B309] are 48% and greater than 10000 nM.
With `COc1cccc(C2(OC)CN(C(=O)c3sc4nnc(C)c(C)c4c3N)C2)c1` [Example B310], the Emax at 30 µM is 39%. Further, the half-maximal effective concentration (EC50) under setting [1] was 1900 nM.
`Cc1nnc2sc(C(=O)N3CC(N=[N+]=[N-])(c4ccccc4)C3)c(N)c2c1C` [Example B311]: the Emax at 30 µM is 43%. For the same compound, under setting [1], the EC50 is 180 nM.
Take `Cc1nnc2sc(C(=O)N3CC(F)(c4ccncc4)C3)c(N)c2c1C` [Example B312]: the Emax at 30 µM was determined as 55%. Further, the EC50 under setting [1] is 2800 nM.
In the same order, the values of `COc1c(F)cc(CNC(=O)c2sc3nnc(C)c(C)c3c2N)cc1F` [Example B313] are 84% and 18 nM.
The matching figures for `COC1(c2ccc(Cl)cc2)CN(C(=O)c2sc3nnc(C)c(C)c3c2N)C1` [Example B314]: 49% and 2800 nM.
The matching figures for `COc1ccc2c(c1)CCN(C(=O)c1sc3nnc(C)c(C)c3c1N)C2` [Example B315]: 57% and 840 nM.
With `Cc1nnc2sc(C(=O)NCc3cccnc3)c(N)c2c1C` [Example B316], the Emax at 30 µM was 73%. The EC50 under setting [1] is 310 nM.
`Cc1nnc2sc(C(=O)N3CC(F)(c4cccc(-c5cncnc5)c4)C3)c(N)c2c1C` [Example B317]: the Emax at 30 µM came out at 47%. Moreover, the EC50 under setting [1] was 290 nM.
As for `Cc1nnc2sc(C(=O)N3CC(F)(c4ccc(-c5ccncc5)cc4)C3)c(N)c2c1C` [Example B318], the Emax at 30 µM is 35%. Also, the EC50 under setting [1] was 290 nM.
In the same order, the values of `Cc1nnc2sc(C(=O)N3CC(F)(c4ccc(-c5cnn(C)c5)cc4)C3)c(N)c2c1C` [Example B319] are 51% and 390 nM.
For the compound `Cc1nnc2sc(C(=O)N3CC(F)(c4ccc(-c5cccnc5)cc4)C3)c(N)c2c1C` [Example B320], the Emax at 30 µM was found to be 42%. For the same compound, the EC50 under setting [1] is 130 nM.
In the same order, the values of `Cc1nnc2sc(C(=O)N3CC(F)(c4cccc(-c5cccnc5)c4)C3)c(N)c2c1C` [Example B321] are 48% and 290 nM.
The matching figures for `Cc1nnc2sc(C(=O)N3CC(c4ccccc4)(N(C)C)C3)c(N)c2c1C` [Example B322]: 42% and 2200 nM.
The matching figures for `Cc1nnc2sc(C(=O)N3CC(F)(c4cccc(-c5ccncc5)c4)C3)c(N)c2c1C` [Example B323]: 44% and 87 nM.
